The values below come from patent US20020071842A1, “Soluble CD1 compositions and uses thereof” (priority 2000, published 2002).

Common to all, as to assay: Plate-bound mCD1d fusion protein hybridoma stimulation assay (IL-2 ELISA)
What all share (type): cell-based, mouse
Background: In an ELISA, binding on a coated surface is turned into a signal by an enzyme label.

One assay has as its system 24.8.A hybridoma. The following applies: for IL-2 response to mCD1d fusion protein pre-treated with purified or synthetic lipid: 24.8.A hybridoma, compared to untreated or buffer treated fusion protein; for IL-2 secretion: 24.8 A NKT hybridoma, plate-bound mCD1d-IgGFc2a fusion protein preincubated with lipid antigen. The source says: (§1) The CD1d-restricted T cell clones 24.7, 24.8, 24.9 (NKT cell) and 14S.6, 14S.7, 14S.10, and 14S.15 (diverse TCRs) were all derived from spleen of wild type C57BL/6 mice, as described previously (Behar, S. M. et al., J. Immunol., 162:161-7 (1999)). To generate T cell hybridomas, the activated T cells were fused to the aminopterin-sensitive BW5147 αβTCR^− thymoma cell line using PEG1500, and hybrids were selected in HAT medium (Life Technologies, Gaithersburg, Md.). Resulting TT hybridomas were tested for recognition of RMA-S cells transfected with mCD1D1 compared to untransfected RMA-S cells, as described below. […] The hybridomas are distinguished from the original T cell clones by the addition of a letter to their names. The KT/7, KT/12, KT/22, and KT/23 and Vβ/9 NKT cell hybridomas were derived from NK1.1^+ T cells enriched from spleen of C57BL/6 mice by depletion of CD8+ T cells, naive T cells, and B cells by mAbs (anti-B220, CD8, and CD62L, or anti-CD8α, CD8β, and Me114) bound to magnetic microbeads, or to plastic. The purified cells were stimulated either by the anti-CD3 KT3 mAb (KT/7, KT/12, KT/22, KT/23), or by an anti-Vβ8.2 mAb (Vβ/9), and addition of IL-2 or IL-2 and IL-7. After 4-5 days of culture the cells were fused with BW5147 thymoma cells. The VII68, VIII24, XVI9, and XV104 diverse TCR hybridomas were generated from CD4^+ T cells from class 110 mice, as described previously (Cardell, S. et al., J. Exp. Med., 182:993-1004 (1995)). The DN32D3 hybridoma was derived as described (Lantz, O., and Bendelac, A., J. Exp. Med., 180:1097-106 (1994).
(§2) To test for recognition of the mCD1d fusion protein and purified or synthetic antigens, 96 well protein A coated plates (Pierce Chemical Company) were incubated with 400-600 ng/well of the fusion protein or a negative control IgG2a antibody, RPC5.4 or UPC10, in PBS, at pH 7.2. Lipid antigens were diluted into PBS and added where specified at the indicated molar ratio of antigen to fusion protein, (when not specified the ratio was 40:1). Protein A plates containing the fusion protein and antigen were incubated 24-48 hr at 37° C., then washed three times with 200 μl/well sterile PBS, pH 7.2, and two times with 200 μl/well sterile culture medium (containing RPMI supplemented with L-glutamine and penicillin/streptomycin, Life Technologies, Gaithersburg, Md., and 10% bovine calf serum, Hyclone Laboratories, Logan, Utah). For assays in which the PI was phospholipase treated, it was first diluted into 0.01M Tris, 0.15M NaCl, pH 7.5, containing 0.25 U PI-specific phospholipase C or 0.5 U phospholipase D (Sigma, St Louis, Mo.), and incubated 30 minutes at room temperature, then added to the protein A plates as described above. For assays in which the pH was varied during antigen incubation with the fusion protein, the fusion protein and α-GalCer were diluted into a 20 mM citrate/phosphate buffer of the specified pH, which contained 0.15 M NaCl, and after incubation, the samples were neutralized by addition of 1M Tris, pH 7.5. Hybridoma cells were added to fusion protein/antigen treated plates at a concentration of 1×10^5 cells/well, in a total volume of 150 μl/well. Assays were performed using 2-6 replicate wells. In some assays, an anti-mCD1d blocking antibody (19G11) was included at a final concentration of 20 μg/ml. The plates were incubated at 37° C. for 16-20 hr, and culture supernatants were withdrawn for analysis. Each experiment was performed at least three times.
IL-2 secreted in the hybridoma stimulation assays was quantitated in a double antibody sandwich ELISA, by comparison to a standard curve of purified murine IL-2 (Pharmingen, San Diego, Calif.). Hybridoma plate stimulation supernatants (used either neat or diluted) and serially diluted IL-2 standards were added to 96 well ELISA plates coated with a rat anti-mouse IL-2 capture antibody (Pharmingen).

Another assay deals with KT/23 hybridoma. The following applies: KT/23 NKT hybridoma; plate-bound mCD1d-IgGFc2a fusion protein preincubated with lipid antigen.
Source text: as §1, §2
(§3) IL-2 secreted in the hybridoma stimulation assays was quantitated in a double antibody sandwich ELISA, by comparison to a standard curve of purified murine IL-2 (Pharmingen, San Diego, Calif.). Hybridoma plate stimulation supernatants (used either neat or diluted) and serially diluted IL-2 standards were added to 96 well ELISA plates coated with a rat anti-mouse IL-2 capture antibody (Pharmingen). […]

In another assay the test system is 14S.6.A hybridoma. To be noted: 14S.6.A diverse TCR hybridoma; plate-bound mCD1d-IgGFc2a fusion protein preincubated with lipid antigen.
Source text: as §1, §2, §3

The test system of another assay is 14S.15.A hybridoma. To be noted: 14S.15.A diverse TCR hybridoma; plate-bound mCD1d-IgGFc2a fusion protein preincubated with lipid antigen.
Source text: as §1, §2, §3

The next assay concerns KT/7 hybridoma. The following applies: KT/7 NKT hybridoma; plate-bound mCD1d-IgGFc2a fusion protein preincubated with lipid antigen.
Source text: as §1, §2, §3

In a further assay the test system is 14S.7.N hybridoma. To be noted: 14S.7.N diverse TCR hybridoma; plate-bound mCD1d-IgGFc2a fusion protein preincubated with lipid antigen.
Source text: as §1, §2, §3

The subject of a further assay is 14S.10.C hybridoma. The following applies: 14S.10 C diverse TCR hybridoma; plate-bound mCD1d-IgGFc2a fusion protein preincubated with lipid antigen.
Source text: as §1, §2, §3

The test system of a further assay is 24.9.E hybridoma. The following applies: 24.9 E NKT hybridoma; plate-bound mCD1d-IgGFc2a fusion protein preincubated with lipid antigen.
Source text: as §1, §2, §3

The test system of the next assay is DN32D3 hybridoma. To be noted: DN32D3 NKT hybridoma; plate-bound mCD1d-IgGFc2a fusion protein preincubated with lipid antigen.
Source text: as §1, §2, §3

In a further assay the test system is Vβ/9 hybridoma. The following applies: Vβ/9 NKT hybridoma; plate-bound mCD1d-IgGFc2a fusion protein preincubated with lipid antigen.
Source text: as §1, §2, §3

For the next assay, the system named is VIII24 hybridoma. The following applies: VIII24 diverse TCR hybridoma; plate-bound mCD1d-IgGFc2a fusion protein preincubated with lipid antigen.
Source text: as §1, §2, §3

For a further assay, the system named is XV19 hybridoma. To be noted: XV19 diverse TCR hybridoma; plate-bound mCD1d-IgGFc2a fusion protein preincubated with lipid antigen.
Source text: as §1, §2, §3

The next assay relates to VII68 hybridoma. The following applies: VII68 diverse TCR hybridoma; plate-bound mCD1d-IgGFc2a fusion protein preincubated with lipid antigen.
Source text: as §1, §2, §3

A further assay deals with XV104 hybridoma. To be noted: XV104 diverse TCR hybridoma; plate-bound mCD1d-IgGFc2a fusion protein preincubated with lipid antigen.
Source text: as §1, §2, §3

In the next assay the test system is 24.7.C hybridoma. To be noted: 24 7.C NKT hybridoma; plate-bound mCD1d-IgGFc2a fusion protein preincubated with lipid antigen.
Source text: as §1, §2, §3

In a further assay the test system is KT/12 hybridoma. The following applies: KT/12 NKT hybridoma; plate-bound mCD1d-IgGFc2a fusion protein preincubated with lipid antigen.
Source text: as §1, §2, §3

Another assay relates to KT/22 hybridoma. The following applies: KT/22 NKT hybridoma; plate-bound mCD1d-IgGFc2a fusion protein preincubated with lipid antigen.
Source text: as §1, §2, §3

On to phosphatidylcholine [PC], for which the “IL-2 response to mCD1d fusion protein pre-treated with purified or synthetic lipid” value in the assay on 24.8.A hybridoma is recorded as “did not reproducibly significantly enhance reactivity”. Also, the IL-2 secretion result with 24.8.A hybridoma is reported as “+ (“+” indicates 50-250 pg/ml)”; in the assay with KT/23 hybridoma, 0 (A “0” indicates a mean of less than 50 pg/ml IL-2 was secreted); in the assay on 14S.6.A hybridoma it was 0 (A “0” indicates a mean of less than 50 pg/ml IL-2 was secreted); in the assay with 14S.15.A hybridoma, 0 (A “0” indicates a mean of less than 50 pg/ml IL-2 was secreted); with KT/7 hybridoma, 0 (A “0” indicates a mean of less than 50 pg/ml IL-2 was secreted); in the assay on 14S.7.N hybridoma, 0 (A “0” indicates a mean of less than 50 pg/ml IL-2 was secreted). The IL-2 secretion with 14S.10.C hybridoma, in the assay on 24.9.E hybridoma, with DN32D3 hybridoma, with Vβ/9 hybridoma, in the assay with VIII24 hybridoma and with XV19 hybridoma was 0 (A “0” indicates a mean of less than 50 pg/ml IL-2 was secreted) each time. The IL-2 secretion with VII68 hybridoma, in the assay with XV104 hybridoma, in the assay with 24.7.C hybridoma, in the assay with KT/12 hybridoma and with KT/22 hybridoma was 0 (A “0” indicates a mean of less than 50 pg/ml IL-2 was secreted) in each case.

As for phosphatidylserine [PS], the “IL-2 response to mCD1d fusion protein pre-treated with purified or synthetic lipid” value in the assay with 24.8.A hybridoma is reported as “did not reproducibly significantly enhance reactivity”. Besides, the IL-2 secretion result was “+ (“+” indicates 50-250 pg/ml)” in the assay on 24.8.A hybridoma; 0 (A “0” indicates a mean of less than 50 pg/ml IL-2 was secreted) with KT/23 hybridoma; 0 (A “0” indicates a mean of less than 50 pg/ml IL-2 was secreted) in the assay with 14S.6.A hybridoma; 0 (A “0” indicates a mean of less than 50 pg/ml IL-2 was secreted) with 14S.15.A hybridoma; 0 (A “0” indicates a mean of less than 50 pg/ml IL-2 was secreted) in the assay on KT/7 hybridoma; 0 (A “0” indicates a mean of less than 50 pg/ml IL-2 was secreted) in the assay with 14S.7.N hybridoma. For the same substance, the IL-2 secretion in the assay on 14S.10.C hybridoma, in the assay on 24.9.E hybridoma, in the assay on DN32D3 hybridoma, in the assay with Vβ/9 hybridoma, in the assay with VIII24 hybridoma and with XV19 hybridoma was 0 (A “0” indicates a mean of less than 50 pg/ml IL-2 was secreted) in each case. For the same substance, the IL-2 secretion in the assay on VII68 hybridoma, in the assay on XV104 hybridoma, in the assay on 24.7.C hybridoma, in the assay with KT/12 hybridoma and in the assay on KT/22 hybridoma was 0 (A “0” indicates a mean of less than 50 pg/ml IL-2 was secreted) in each case.
